Source: paper PMC9749936, “Synthesis and structure–activity relationship studies of N-terminal analogues of the lipopeptide antibiotics brevicidine and laterocidine” (RSC Medicinal Chemistry, 2022)
Read-outs that look alike come from different tables or passages of the source. Bridge positions count the residues as written; N and C are the ends. Square brackets hold non-standard residues; d marks the D form. Peptide text beside a SMILES is read from it. * marks the point of attachment. ξ: configuration not given here. Palmitoyl = CCCCCCCCCCCCCCCC(=O)*; Hexanoyl(4ξ-Me) = CCC(C)CCC(=O)*; dOrn = NCCC[C@@H](N)C(=O)O; X1 = CC[C@H](C)CCCCC(=O)*; Octanoyl = CCCCCCCC(=O)*; Orn = NCCC[C@H](N)C(=O)O; Dab = NCC[C@H](N)C(=O)O

Assays:
P. aeruginosa PAO1 = format: cell-based, Pseudomonas aeruginosa
Procedure: (§1) The minimum inhibitory concentrations (MICs) of brevicidine and laterocidine analogues were determined against a panel of clinically relevant ESKAPE pathogens; Escherichia coli (E. coli), Klebsiella pneumoniae (K. pneumoniae), Acinetobacter baumannii (A. baumannii), Pseudomonas aeruginosa (P. aeuroginosa) and Staphylococcus aureus (S. aureus), which cause the majority of nosocomial infections in the United States.[16] […] In this resistance mechanism, the polymyxin target (lipid A) is modified, reducing binding affinity. For this reason, a strain of colistin-resistant E. coli carrying the mcr-1 gene was also included in the panel. […]
(§2) IV. Antimicrobial testing
(§3) All minimum inhibitory concentrations (MICs) were determined according to Clinical and Standards Laboratory Institute (CLSI) guidelines. Blood agar plates were inoculated with glycerol stocks of E. coli ATCC 25922, K. pneumoniae ATCC 13883, A. baumannii ATCC 17961, P. aeruginosa PAO1 and S. aureus USA300. The inoculated agar plates were then incubated for 16 h at 37 °C . Individually grown colonies were subsequently used to inoculate 5 mL aliquots of TSB that were then incubated at 37 °C with shaking at 220 rpm. E. coli 25922 MCR-1 glycerol stock was used to inoculate 5 mL of TSB supplemented with kanamycin that was then incubated for 16 h at 37 °C with shaking at 220 rpm. The next day the culture was diluted 100 fold in TSB supplemented with kanamycin and incubated at 37 °C with shaking at 220 rpm. In parallel, the lipopeptide antibiotics DMSO stocks to be assessed were serially diluted with MHB in polypropylene 96-well plates (50 µL in each well). Colistin sulfate stocks were dissolved in water before being diluted with MHB. Aliquots of the inoculated TSB were incubated until an OD600 of around 0.5 was reached. The bacterial suspensions were then diluted with MHB (2 x 10^5 CFU mL-1) and added to the microplates containing the test compounds (50 µL to each well). The well-plates were sealed with an adhesive membrane and after 18 h of incubation at 37 °C with shaking at 600 rpm, the wells were visually inspected for bacterial […]
(§4) growth. MIC values reported are based on three technical replicates and defined as the lowest concentration of the compound that prevented visible growth of bacteria. […]
(§5) The values obtained from a read-out at 415 nm were corrected for background (negative control) and transformed to a percentage relative to the positive control.
(§6) VI. HPLC and HRMS analysis of peptides
(§7) Peptide Name Chemical Calcd Mass found Calcd Overall […]

S. aureus USA300 = format: cell-based, Staphylococcus aureus
Procedure: as §1, §2, §3, §4, §5, §6, §7

E. coli ATCC 25922 = format: cell-based, Escherichia coli
Procedure: as §1, §2, §3, §4, §5, §6, §7

Sheep red blood cells = format: cell-based
Procedure: Having ascertained the antimicrobial activity of all synthetic peptides against a panel of ESKAPE pathogens, we next assessed their mammalian toxicity with hemolytic assays using sheep red blood cells. The % hemolysis for all peptides at 64 μg mL^−1 was determined, with the hemolysis induced by the surfactant 0.1% Triton X-100 taken as 100%. […] Hemolysis was <1% for all analogues with a C8 chain or shorter, including the strongest antibacterial peptide C8-Lat (22). Hemolytic activity increased up to C14 (>50% for C14-Lat) and then decreased at longer chain lengths, perhaps due to decreased solubility of peptides or aggregation. […]
Phosphate-Buffered Saline (PBS) containing 0.002% Tween20 (buffer) five times. Then, the red blood cells were normalized to obtain a positive control read-out between 2.5 and 3.0 at 415 nm to stay within the linear range with the maximum sensitivity. A serial dilution of the compounds (128 – 1 µg/mL, 75 µL) was prepared in a 96-well polypropylene plate. The outer border of the plate was filled with 75 µL buffer. Each plate contained a positive control (0.1% Triton-X final concentration, 75 µL) and a negative control (buffer, 75 µL) in triplicate. The normalized blood cells (75 µL) were added and the plates were incubated at 37 °C for 1 h while shaking at 500 rpm. A flat-bottom polystyrene plate with 100 µL buffer in each well was prepared. After incubation, the plates were centrifuged (800 g for 5 min at room temperature) and 25 µL of the supernatant was transferred to their respective wells in the flat-bottom plate. The values obtained from a read-out at 415 nm were corrected for background (negative control) and transformed to a percentage relative to the positive control. […]

E. coli ATCC 25922 MCR-1 = format: cell-based, Escherichia coli
Procedure: as §1
Colisitin sulfate was purchased from Activate Scientific. Kanamycin monosulfate was purchased from MP Biomedicals. E. coli ATCC 25922, S. aureus USA300 (ATCC BAA1717), K. pneumoniae ATCC 13883 and A. baumannii ATCC 17961 belong to the American Type Culture Collection (ATCC). P. aeruginosa PAO1 was kindly provided by L.H.C. Quarles Van Ufford, Utrecht University, Utrecht, The Netherlands. E. coli ATCC 25922 MCR-1 was transfected in house using the pGDP2-MCR1 plasmid kindly provided by Yong-Xin Li, The University of Hong Kong, Hong Kong, China. Sheep blood agar plates (Ref. PB5039A) were purchased from Thermo Scientific. Tryptic soy broth (Ref. 02-200-500) was purchased from Scharlab. Mueller-Hinton broth (Ref. X927.1) was purchased from Carl Roth. Polypropylene 96-wells plates (Ref. 3879) were purchased from Corning. […]
(10.0 mL). 2-Chlorotrityl (CT) chloride resin (2.00 g, 0.81 mmol g-1) and DIPEA (420 µL, 2.40 mmol) were added. […]
A gradient […]
method for C14 - C16 laterocidine was employed, starting at 100% solvent A for 2 min, ramping up to 70 % solvent B over 45 min, ramping up to 100% solvent B over 1 min, remaining there for 6 min before ramping down to 100% solvent A and remaining there for 5 min. High resolution mass spectrometry (HRMS) spectra of brevicidine peptides were recorded by Analytical Services and Environmental Projects (ASEP) at Queen’s University Belfast on a Waters LCT Premier ToF mass spectrometer using the electrospray ionisation (ESI) technique. HRMS spectra of laterocidine peptides were performed on a Thermo Scientific Dionex UltiMate 3000 HPLC system with a Phenomenex Kinetex C18 (2.6 µm, 2.1 x 150 mm) column at 35 °C and equipped with a diode array detector. The following solvent system, at a flow rate of 0.3 mL/min, was used: solvent A = 0.1% formic acid in water, solvent B = 0.1% formic acid in acetonitrile. A gradient method was employed, starting at 95 % solvent A and 5 % solvent B for 1 min, ramping up to 95 % solvent B over 9 min, ramping up to 98 % solvent B over 1 min, remaining there for 1 min before ramping back down to 95 % solvent A over 2 min and remaining there for 1 min.
The system was connected to a Bruker micrOTOF-Q II mass spectrometer (ESI ionization) calibrated internally with sodium […]
as §2
as §3, with “MHB.” for “MHB. Aliquots of the inoculated TSB were incubated until an OD600 of around 0.5 was reached. The bacterial suspensions were then diluted with MHB (2 x 10^5 CFU mL-1) and added to the microplates containing the test compounds (50 µL to each well). The well-plates were sealed with an adhesive membrane and after 18 h of incubation at 37 °C with shaking at 600 rpm, the wells were visually inspected for bacterial”

K. pneumoniae ATCC 13883 = format: cell-based, Klebsiella pneumoniae
Procedure: as §1, §2, §3, §4, §5, §6, §7

A. baumannii ATCC 17961 = format: cell-based, Acinetobacter baumannii
Procedure: as §1, §2, §3, §4, §5, §6, §7

[1] = red cells of sheep, 1 h, 64 μg mL^−1
[2] = colistin-resistant strain carrying mcr-1, CLSI broth microdilution in MHB, 18 h at 37 °C, visual inspection, three technical replicates
[3] = CLSI broth microdilution in MHB, 18 h at 37 °C, visual inspection, three technical replicates

With `CCCCCCCCCCCCCCCC(=O)N[C@H](CC(N)=O)C(=O)N[C@H](Cc1ccc(O)cc1)C(=O)N[C@H](Cc1c[nH]c2ccccc12)C(=O)N[C@H](CCCN)C(=O)N[C@@H](CCCN)C(=O)NCC(=O)N[C@H](CCCN)C(=O)N[C@@H](Cc1c[nH]c2ccccc12)C(=O)N[C@@H]1C(=O)N[C@@H]([C@@H](C)CC)C(=O)NCC(=O)N[C@@H](CO)C(=O)O[C@@H]1C` [Compound 17] (Palmitoyl-[dN][dY][dW][dOrn][Orn]G[dOrn]WTIGS; ester 9-C) the “Antimicrobial activity (MIC) P. aeruginosa PAO1” value (P. aeruginosa PAO1; PAO1, 18 h) was greater than 32 µg/mL, the “Antimicrobial activity (MIC) S. aureus USA300” value (S. aureus USA300; USA300, 18 h) was greater than 32 µg/mL and the “Antimicrobial activity (MIC) E. coli ATCC 25922” value (E. coli ATCC 25922; ATCC 25922, 18 h) was greater than 32 µg/mL. The “% Hemolytic activity, sheep red blood cells” value (shortened to “% Hemolytic activity”) (Sheep red blood cells; [1]) was 13.3%, the “Antimicrobial activity (MIC) E. coli ATCC 25922 MCR-1” value (E. coli ATCC 25922 MCR-1; [2]) was greater than 32 µg/mL and the “Antimicrobial activity (MIC) K. pneumoniae ATCC 13883” value (K. pneumoniae ATCC 13883; ATCC 13883, 18 h) was greater than 32 µg/mL. For the same compound, the “Antimicrobial activity (MIC) A. baumannii ATCC 17961” value (A. baumannii ATCC 17961; ATCC 17961, 18 h) was 32 µg/mL.
For `CCC(C)CCC(=O)N[C@H](CC(N)=O)C(=O)N[C@H](Cc1ccc(O)cc1)C(=O)N[C@H](Cc1c[nH]c2ccccc12)C(=O)N[C@H](CCCN)C(=O)N[C@@H](CCCN)C(=O)NCC(=O)N[C@H](CCCN)C(=O)N[C@@H](Cc1c[nH]c2ccccc12)C(=O)N[C@@H]1C(=O)N[C@@H]([C@@H](C)CC)C(=O)NCC(=O)N[C@@H](CO)C(=O)O[C@@H]1C` (stereo partly shown) [Compound 1, brevicidine] ({Hexanoyl(4ξ-Me)}-[dN][dY][dW][dOrn][Orn]G[dOrn]WTIGS; ester 9-C), the “Antimicrobial activity (MIC) P. aeruginosa PAO1” value (P. aeruginosa PAO1; PAO1, 18 h) was 8 µg/mL, the “Antimicrobial activity (MIC) S. aureus USA300” value (S. aureus USA300; USA300, 18 h) was greater than 32 µg/mL and the “Antimicrobial activity (MIC) E. coli ATCC 25922” value (E. coli ATCC 25922; ATCC 25922, 18 h) was 4 µg/mL. The “% Hemolytic activity” value (Sheep red blood cells; [1]) was 0.8%, the “Antimicrobial activity (MIC) E. coli ATCC 25922 MCR-1” value (E. coli ATCC 25922 MCR-1; [2]) was 4 µg/mL and the “Antimicrobial activity (MIC) K. pneumoniae ATCC 13883” value (K. pneumoniae ATCC 13883; ATCC 13883, 18 h) was 2 µg/mL. For the same compound, the “Antimicrobial activity (MIC) A. baumannii ATCC 17961” value (A. baumannii ATCC 17961; ATCC 17961, 18 h) was 4 µg/mL.
`CC[C@H](C)CCCCC(=O)N[C@@H](CCN)C(=O)N[C@H](C(=O)N[C@@H](CCN)C(=O)N[C@H]1CCNC(=O)[C@H]([C@@H](C)O)NC(=O)[C@H](CCN)NC(=O)[C@H](CCN)NC(=O)[C@H](CC(C)C)NC(=O)[C@@H](CC(C)C)NC(=O)[C@H](CCN)NC1=O)[C@@H](C)O` [Colistin, colistin, reference compound] (X1-[Dab]T[Dab][Dab][Dab][dL]L[Dab][Dab]T; lactam 4-C (inferred); N-terminus assumed) was tested, and the “Antimicrobial activity (MIC) P. aeruginosa PAO1” value (P. aeruginosa PAO1; [3]) was 4 µg/mL, the “Antimicrobial activity (MIC) S. aureus USA300” value (S. aureus USA300; [3]) was greater than 32 µg/mL and the “Antimicrobial activity (MIC) E. coli ATCC 25922” value (E. coli ATCC 25922; CLSI broth microdilution in MHB, polypropylene 96-well plates, 18 h at 37 °C, visual inspection, three technical replicates) was 0.5 µg/mL. For the same compound, the “% Hemolytic activity” value (Sheep red blood cells; peptide at 64 μg mL^−1, 1 h at 37 °C in PBS with 0.002% Tween20, read-out at 415 nm, relative to 0.1% Triton X-100 taken as 100%, triplicate) was less than 0.1%, the “Antimicrobial activity (MIC) E. coli ATCC 25922 MCR-1” value (E. coli ATCC 25922 MCR-1; ATCC 25922, 18 h) was 8 µg/mL and the “Antimicrobial activity (MIC) K. pneumoniae ATCC 13883” value (K. pneumoniae ATCC 13883; [3]) was 0.5 µg/mL. The “Antimicrobial activity (MIC) A. baumannii ATCC 17961” value (A. baumannii ATCC 17961; [3]) was no more than 0.25 µg/mL.
With `CCCCCCCC(=O)N[C@H](CC(N)=O)C(=O)N[C@H](Cc1ccc(O)cc1)C(=O)N[C@H](Cc1c[nH]c2ccccc12)C(=O)N[C@H](CCCN)C(=O)N[C@@H](CCCN)C(=O)NCC(=O)N[C@H](CCCN)C(=O)N[C@@H](Cc1c[nH]c2ccccc12)C(=O)N[C@@H]1C(=O)N[C@@H]([C@@H](C)CC)C(=O)NCC(=O)N[C@@H](CO)C(=O)O[C@@H]1C` [Compound 13] (Octanoyl-[dN][dY][dW][dOrn][Orn]G[dOrn]WTIGS; ester 9-C) the “Antimicrobial activity (MIC) P. aeruginosa PAO1” value (P. aeruginosa PAO1; PAO1, 18 h) was 8 µg/mL, the “Antimicrobial activity (MIC) S. aureus USA300” value (S. aureus USA300; USA300, 18 h) was greater than 32 µg/mL and the “Antimicrobial activity (MIC) E. coli ATCC 25922” value (E. coli ATCC 25922; ATCC 25922, 18 h) was 16 µg/mL. For the same compound, the “% Hemolytic activity” value (Sheep red blood cells; [1]) was 0.4%, the “Antimicrobial activity (MIC) E. coli ATCC 25922 MCR-1” value (E. coli ATCC 25922 MCR-1; [2]) was 16 µg/mL and the “Antimicrobial activity (MIC) K. pneumoniae ATCC 13883” value (K. pneumoniae ATCC 13883; ATCC 13883, 18 h) was 16 µg/mL. The “Antimicrobial activity (MIC) A. baumannii ATCC 17961” value (A. baumannii ATCC 17961; ATCC 17961, 18 h) was 16 µg/mL.
